Test results from US10882860B2, “Treatment of osteoarthritis” (Samumed, LLC, priority 2015, dated 2021).
Marks after values point to notes of the source that are not given here.

Experiments:
[1] = system: nitric oxide release; assay: Immunosuppression in chondrocytes: nitric oxide (Greiss reagent); type: cell-based, human; details: cells stimulated with TNF-α and oncostatin M or IL-1β; 72 hours; FIG. 20B
Protocol: Human MSCs were plated in 10 cm dishes in chondrogenic induction medium (Lonza; DMEM, dexamethasone, ascorbate, insulin-transferrin-selenium [ITS supplement], gentamycin-amphotericin [GA-1000], sodium pyruvate, proline and L-glutamine) and treated with TGF-β3 (20 μg/mL) to induce chondrogenic differentiation. Cells from 4 dishes were pooled and re-plated in 24-well plates in Chondrogenic Induction Medium and treated with various concentrations of the compound of Formula (I). 4 hours later, cells were stimulated by adding TNF-α (20 μg/mL)+Oncostatin M ([…]) or IL-1β (10 μg/mL) and incubated at 37° C., 5% CO2 for 72 hours. Chondrocytes were digested with papain (Sigma). GAG content was measured using the dimethylmethylene blue (DMMB) kit (Chondrex). Briefly, the digested chondrocytes were mixed with DMMB in formate buffer and absorbance at 535 nm was measured using Cytation 3 (Biotek). Nitric oxide was measured using Greiss reagent (Promega) according to manufacturer's protocol.

[2] = system: rats that underwent ACLT combined with medial meniscectomy (MMx); assay: Efficacy of suspension in rat ACLT + pMMx model (OARSI score); type: in vivo; details: for OARSI score: vehicle 4.43
Protocol: The efficacy of the compound of Formula (I) on increasing cartilage thickness was determined in rats that underwent anterior cruciate ligament transection (ACLT) combined with medial meniscectomy (MMx).
Female rats (10-12 weeks old) were subjected to surgical severing of the anterior cruciate, medial collateral and medial meniscotibial ligaments (ACLT+pMMx). One-week post-surgery, after cartilage was allowed to degenerate, the rats were injected intra-articular (IA) with a single dose of a suspension of the compound of Formula (I) (0.1 μg or 0.3 μg or 1 μg). On Days 30, 60, and 90 after injection, joint cartilage, bone and plasma was isolated. Compound from these tissues was extracted using acetonitrile-methanol (70:30) and analyzed for concentrations using LC-MS.
13 weeks after the surgery (12 weeks post-IA injection), knees were isolated, fixed in 10% formalin, decalcified, embedded in paraffin, and sectioned. Sections were stained with Safranin O-Fast Green and histologically evaluated by two blinded observers based on OARSI scoring system (Pritzker et al. (2006) Osteoarthr. Cartil. 14:13-29). The OARSI score measures cartilage matrix loss, fissures, subchondral bone remodeling and bone cyst formation.

[3] = system: moderate-to-severe symptomatic knee OA subjects; assay: Phase 1 MRI and radiograph study (bone marrow edema, cartilage thickness, joint space width); type: in vivo, human; details: for Bone Marrow Edema [N(%)]: Baseline Diffuse, Week 12 Diffuse / Bone Marrow Edema [N(%)]: Baseline Diffuse, Week 12 Focal / Bone Marrow Edema [N(%)]: Baseline Diffuse, Week 12 None / Bone Marrow Edema [N(%)]: Baseline Focal, Week 12 Diffuse / Bone Marrow Edema [N(%)]: Baseline Focal, Week 12 Focal / Bone Marrow Edema [N(%)]: Baseline Focal, Week 12 None / Bone Marrow Edema [N(%)]: Baseline None, Week 12 Diffuse / Bone Marrow Edema [N(%)]: Baseline None, Week 12 Focal / Bone Marrow Edema [N(%)]: Baseline None, Week 12 None: MRI; for change from baseline in joint space width (radiograph): Week 24
Source text: To assess the safety and efficacy of the compound of Formula (I) (Form 1), magnetic resonance imaging (MM) was used. Safety evaluations included assessment of bone marrow edema by Mill. MM was used to document changes from baseline in total cartilage volume and thickness in the compartments of the target knee joint. Imaging results (safety and exploratory outcomes) in the Phase 1 study are described above.
Knee MRIs were obtained with a 16 channel knee coil on a 3.0T MRI machine using a standard diagnostic protocol (resolution 0.1-0.4 mm). MM scans were collected at the baseline visit (which could occur ≤28 days prior to study injection) and again at Weeks 12 and 24. The sponsor was unblinded after Week 12 for each cohort; site investigators remained blinded.
An exploratory analysis of change in imaging outcomes was conducted using repeated measures analysis of covariance (ANCOVA) adjusting for baseline in the Intention-to-Treat (ITT) population.
As a safety assessment, MRI scans were used to monitor the presence of focal or diffuse bone marrow edema (BME) in all subjects.
Average cartilage thickness over covered subchondral bone was reported for the following four compartments: medial femoral condyles, lateral femoral condyles, medial tibial plateaus, and lateral tibial plateaus.
FIG. 27 depicts the MRI of a knee joint. To determine average cartilage thickness, the cartilage thickness between the subchondral bone area (400 and 404) and the articular cartilage surface (402 and 406) was measured at numerous (˜400-2000) locations in both directions in the parts covered by cartilage (cAB) and averaged. Measurements were performed in three dimensions. Additionally, the average of the lowest 1% of cartilage thickness was also reported for all 4 compartments. The total for both average thickness and lowest thickness were derived by summing each of the 4 compartments' observations.
Radiographs of the target knee were taken during the screening period and at Week 24 to document change from baseline in joint space width (JSW). Table 52 depicts joint space width as measured by radiography for three dosing cohorts and a placebo group.

Structure (SMILES): CC(C)CC(=O)Nc1cncc(-c2ccc3[nH]nc(-c4nc5c(-c6cccc(F)c6)cncc5[nH]4)c3c2)c1 [compound of Formula (I)]
- release of nitric oxide [1]: reduced
- OARSI score ([2]; rat ACLT+pMMx, single IA 0.1 μg suspension, 12 weeks post-injection): 3.13
- OARSI score ([2]; rat ACLT+pMMx, single IA 0.3 μg suspension, 12 weeks post-injection): 2.15
- total OARSI score (against vehicle) ([2]; rat ACLT+pMMx, 0.1, 0.3 or 1 μg, 12 weeks post-injection): dose-dependent reduction
- knee histology (Safranin O-Fast Green) ([2]; rat ACLT+pMMx, single IA injection, 12 weeks post-injection): Increased cartilage thickness, decreased fissures, and subchondral bone remodeling
- cartilage in safranin O-stained knee section vs control knee ([2]; rat, 0.3 μg, after 12 weeks, FIG. 23B): increased cartilage
- Bone Marrow Edema [N(%)]: Baseline Diffuse, Week 12 Diffuse ([3]; 0.03 mg cohort): 1 (6%) N(%)
- Bone Marrow Edema [N(%)]: Baseline Diffuse, Week 12 Focal ([3]; 0.03 mg cohort): 1 (6%) N(%)
- Bone Marrow Edema [N(%)]: Baseline Diffuse, Week 12 None ([3]; 0.03 mg cohort): 0 N(%)
- Bone Marrow Edema [N(%)]: Baseline Focal, Week 12 Diffuse ([3]; 0.03 mg cohort): 0 N(%)
- Bone Marrow Edema [N(%)]: Baseline Focal, Week 12 Focal ([3]; 0.03 mg cohort): 4 (25%) N(%)
- Bone Marrow Edema [N(%)]: Baseline Focal, Week 12 None ([3]; 0.03 mg cohort): 0 N(%)
- Bone Marrow Edema [N(%)]: Baseline None, Week 12 Diffuse ([3]; 0.03 mg cohort): 0 N(%)
- Bone Marrow Edema [N(%)]: Baseline None, Week 12 Focal ([3]; 0.03 mg cohort): 1 (6%) N(%)
- Bone Marrow Edema [N(%)]: Baseline None, Week 12 None ([3]; 0.03 mg cohort): 9 (57%) N(%)
- Joint space width by radiograph, Week 24 (mm) Actual [Mean (SD)] ([3]; 0.03 mg cohort, N 15): 4.50 (1.72) mm
- Joint space width by radiograph, Week 24 (mm) Change from baseline [Mean (SD)] ([3]; 0.03 mg cohort, N 15): 0.00 (0.69) mm
- Mean cartilage thickness by MRI, Week 12 (mm) Actual [Mean (SD)] ([3]; 0.03 mg cohort, N 16): 5.38 (1.19) mm
- Mean cartilage thickness by MRI, Week 12 (mm) Change from baseline [Mean (SD)] ([3]; 0.03 mg cohort, N 16): −0.06 (0.39) mm
- Mean thinnest cartilage by MRI, Week 12 (mm) Actual [Mean (SD)] ([3]; 0.03 mg cohort, N 16): 3.84 (1.57) mm
- Mean thinnest cartilage by MRI, Week 12 (mm) Change from baseline [Mean (SD)] ([3]; 0.03 mg cohort, N 16): 0.11 (0.37) mm
- area of mean thinnest cartilage by MRI ([3]; 0.03 mg cohort, Week 12): possible trend towards increase
- change from baseline in joint space width (radiograph) ([3]; 0.03 mg cohort): no change
- Bone Marrow Edema [N(%)]: Baseline Diffuse, Week 12 Diffuse ([3]; 0.07 mg cohort): 0 N(%)
- Bone Marrow Edema [N(%)]: Baseline Diffuse, Week 12 Focal ([3]; 0.07 mg cohort): 1 (6%) N(%)
- Bone Marrow Edema [N(%)]: Baseline Diffuse, Week 12 None ([3]; 0.07 mg cohort): 0 N(%)
- Bone Marrow Edema [N(%)]: Baseline Focal, Week 12 Diffuse ([3]; 0.07 mg cohort): 0 N(%)
- Bone Marrow Edema [N(%)]: Baseline Focal, Week 12 Focal ([3]; 0.07 mg cohort): 1 (6%) N(%)
- Bone Marrow Edema [N(%)]: Baseline Focal, Week 12 None ([3]; 0.07 mg cohort): 1 (6%) N(%)
- Bone Marrow Edema [N(%)]: Baseline None, Week 12 Diffuse ([3]; 0.07 mg cohort): 0 N(%)
- Bone Marrow Edema [N(%)]: Baseline None, Week 12 Focal ([3]; 0.07 mg cohort): 2 (13%) N(%)
- Bone Marrow Edema [N(%)]: Baseline None, Week 12 None ([3]; 0.07 mg cohort): 11 (69%) N(%)
- Joint space width by radiograph, Week 24 (mm) Actual [Mean (SD)] ([3]; 0.07 mg cohort, N 14): 4.16 (1.64) mm
- Joint space width by radiograph, Week 24 (mm) Change from baseline [Mean (SD)] ([3]; 0.07 mg cohort, N 14, p = 0.006 versus placebo): 0.59 (0.66)* mm
- Mean cartilage thickness by MRI, Week 12 (mm) Actual [Mean (SD)] ([3]; 0.07 mg cohort, N 16): 5.37 (0.71) mm
- Mean cartilage thickness by MRI, Week 12 (mm) Change from baseline [Mean (SD)] ([3]; 0.07 mg cohort, N 16): −0.02 (0.25) mm
- Mean thinnest cartilage by MRI, Week 12 (mm) Actual [Mean (SD)] ([3]; 0.07 mg cohort, N 16): 3.88 (1.39) mm
- Mean thinnest cartilage by MRI, Week 12 (mm) Change from baseline [Mean (SD)] ([3]; 0.07 mg cohort, N 16): 0.10 (0.55) mm
- area of mean thinnest cartilage by MRI ([3]; 0.07 mg cohort, Week 12): possible trend towards increase
- change from baseline in joint space width (radiograph) ([3]; 0.07 mg cohort): increase
- Bone Marrow Edema [N(%)]: Baseline Diffuse, Week 12 Diffuse ([3]; 0.23 mg cohort): 2 (13%) N(%)
- Bone Marrow Edema [N(%)]: Baseline Diffuse, Week 12 Focal ([3]; 0.23 mg cohort): 0 N(%)
- Bone Marrow Edema [N(%)]: Baseline Diffuse, Week 12 None ([3]; 0.23 mg cohort): 0 N(%)
- Bone Marrow Edema [N(%)]: Baseline Focal, Week 12 Diffuse ([3]; 0.23 mg cohort): 0 N(%)
- Bone Marrow Edema [N(%)]: Baseline Focal, Week 12 Focal ([3]; 0.23 mg cohort): 8 (50%) N(%)
- Bone Marrow Edema [N(%)]: Baseline Focal, Week 12 None ([3]; 0.23 mg cohort): 1 (6%) N(%)
- Bone Marrow Edema [N(%)]: Baseline None, Week 12 Diffuse ([3]; 0.23 mg cohort): 0 N(%)
- Bone Marrow Edema [N(%)]: Baseline None, Week 12 Focal ([3]; 0.23 mg cohort): 1 (6%) N(%)
- Bone Marrow Edema [N(%)]: Baseline None, Week 12 None ([3]; 0.23 mg cohort): 4 (25%) N(%)
- Mean cartilage thickness by MRI, Week 12 (mm) Actual [Mean (SD)] ([3]; 0.23 mg cohort, N 15): 5.32 (1.03) mm
- Mean cartilage thickness by MRI, Week 12 (mm) Change from baseline [Mean (SD)] ([3]; 0.23 mg cohort, N 15): −0.04 (0.24) mm
- Mean thinnest cartilage by MRI, Week 12 (mm) Actual [Mean (SD)] ([3]; 0.23 mg cohort, N 15): 3.01 (1.27) mm
- Mean thinnest cartilage by MRI, Week 12 (mm) Change from baseline [Mean (SD)] ([3]; 0.23 mg cohort, N 15): −0.13 (0.30) mm
- Joint space width by radiograph, Week 24 (mm) Actual [Mean (SD)] ([3]; 0.23 mg cohort, N 16): 3.47 (1.68) mm
- Joint space width by radiograph, Week 24 (mm) Change from baseline [Mean (SD)] ([3]; 0.23 mg cohort, N 16): −0.15 (1.07) mm
- change from baseline in joint space width (radiograph) ([3]; 0.23 mg cohort): decrease
- exploratory imaging results, dose comparison ([3]; 0.23 mg dose vs 0.03 mg and 0.07 mg doses): less effective
- effect on bone marrow edema compared to Placebo ([3]; single IA injection, interim): no appreciable effect
- mean cartilage thickness by MRI ([3]; treated subjects, Week 12): no substantial degradation
- subjects with improved BME results (focal to none and diffuse to focal) ([3]; treatment groups, baseline to Week 12): 4
